SMILES strings stand for the structures. Values after ≈ are worked out from the molar mass of the structure shown.

Assay [1] concerns human leukemia cells (CCRF-CEM cell line). The assay is described as follows: growth inhibition (cytotoxicity) of human leukemia cells, Table 1. Type of assay: cell-based. To be noted: IC50 less than 20 μg/ml is considered active; for IC50: Homo sapiens, read-out: IC50 (concentration giving 50 percent growth inhibition). The source says:
38, 2886 (1978). The representative compounds of formula I employed in the present invention are cytotoxic as They inhibit the growth of rapidly dividing human leukemia cells (CCRF-CEM cell line). Table 1 below gives the results of testing several compounds representative of formula I. In Table 1, Column 1 gives the representative compound and Column 2 gives the IC50 (concentration giving 50 percent growth inhibition) in μg/ml.

Another assay deals with HSV-2. The assay is described as follows: plaque inhibition of HSV-2 in African green monkey kidney cells (BSC-1), Table 2. Type of assay: cell-based, Herpes simplex virus, type II. To be noted: 72 hours at 37° C., IC50 less than 20 μg/ml is considered active; for IC50: Human alphaherpesvirus 2, BSC-1 cells, read-out: HSV-2 IC50 (concentration giving 50 percent growth inhibition; plaque inhibition).

The next assay concerns HSV-1. The experiment in a line: plaque inhibition of HSV-1 in African green monkey kidney cells (BSC-1), Table 2. To be noted: 72 hours at 37° C., IC50 less than 20 μg/ml is considered active; for IC50: Human alphaherpesvirus 1, BSC-1 cells, read-out: HSV-1 IC50 (concentration giving 50 percent growth inhibition; plaque inhibition). Type of assay: cell-based, Herpes simplex virus, type I.

In the case of `O=c1nc(NO)ccn1[C@@H]1O[C@H](CO)[C@@H](O)C1(F)F` [Example 1, β-1-(2-Oxo-4-hydroxyamino-1,2-dihydropyrimidin-1-yl)-2-deoxy-2,2-difluororibose], the IC50 in assay [1] is 0.086 µg/mL (≈ 0.308 µM); in the assay with HSV-2, 1.07 µg/mL (≈ 3.83 µM); with HSV-1, 0.7 µg/mL (≈ 2.51 µM).
`O=c1n([C@@H]2O[C@H](CO)[C@@H](O)C2(F)F)ccc2nnnn12` [Example 2, 6-(2-deoxy-2,2-difluoro-β-D-ribofuranosyl)-1,2,3,4-tetrazolo[1,5-c]pyrimidine-5(6H) -one]: the IC50 was 0.5 µg/mL (≈ 1.73 µM) in assay [1], 9.25 µg/mL (≈ 32 µM) in the assay with HSV-2 and 8 µg/mL (≈ 27.7 µM) in the assay on HSV-1.
For `O=c1[nH]nc2ccn([C@@H]3O[C@H](CO)[C@@H](O)C3(F)F)c(=O)n12` [Example 4, 6-(2-deoxy-2,2-difluoro-β-D-ribofuranosyl)-1,2,4-triazolo[4,3c]pyrimidine-3,5(2H,6H)-dione], in that order: 0.2 µg/mL (≈ 0.657 µM), 4.9 µg/mL (≈ 16.1 µM) and 6 µg/mL (≈ 19.7 µM).
For the compound `NNc1ccn([C@@H]2O[C@H](CO)[C@@H](O)C2(F)F)c(=O)n1` [Example 5, β-1-(2-Oxo-4-hydrazino-1,2-dihydropyrimidin-1-yl)-2-deoxy-2,2-difluororibose], the IC50 is 0.077 µg/mL (≈ 0.277 µM) in assay [1], 4.35 µg/mL (≈ 15.6 µM) in the assay on HSV-2 and 3.12 µg/mL (≈ 11.2 µM) in the assay on HSV-1.
For the compound `CCOC(=O)Nc1ccn([C@@H]2O[C@H](CO)[C@@H](O)C2(F)F)c(=O)n1` [Example 6, β-1-(2-Oxo-4-aminocarboethoxy-1,2-dihydropyrimidin-1-yl)-2-deoxy-2,2-difluororibose], the figures for the IC50 (in assay [1]; with HSV-2; with HSV-1) were 0.051 µg/mL (≈ 0.152 µM), 0.58 µg/mL (≈ 1.73 µM) and 0.53 µg/mL (≈ 1.58 µM), respectively.
For `O=c1nc(NCO)ccn1[C@@H]1O[C@H](CO)[C@@H](O)C1(F)F` [Example 7, β-1-(2-Oxo-4-hydroxymethylamino-1,2-dihydropyrimidin-1-yl)-2-deoxy-2,2-difluororibose], in assay [1], the “IC50 (concentration giving 50 percent growth inhibition)” value worked out at 0.3 µg/mL (≈ 1.02 µM). Moreover, in the assay on HSV-2 (BSC-1 cells), the “HSV-2 IC50 (concentration giving 50 percent growth inhibition; plaque inhibition)” value was determined as 11.1 µg/mL. The “HSV-1 IC50 (concentration giving 50 percent growth inhibition; plaque inhibition)” value in the assay on HSV-1 (BSC-1 cells) is 18.0 µg/mL.
In the case of `CCOC(=O)CNc1ccn([C@@H]2O[C@H](CO)[C@@H](O)C2(F)F)c(=O)n1` [Example 8, β-1-(2-Oxo-4-N-glycineethyl ester-1,2-dihydropyrimidin-1-yl)-2-deoxy-2,2-difluororibose], in assay [1], the IC50 turned out to be 18.4 µg/mL (≈ 52.7 µM).
On the same count and under the same terms, the result for `O=C(O)CNc1ccn([C@@H]2O[C@H](CO)[C@@H](O)C2(F)F)c(=O)n1` [Example 9, β-1-(2-Oxo-4-N-glycinyl-1,2-dihydropyrimidin-1yl)-2-deoxy-2,2-difluororibose] reads 0.4 µg/mL (≈ 1.25 µM).
Take `CNNc1ccn([C@@H]2O[C@H](CO)[C@@H](O)C2(F)F)c(=O)n1` [Example 10, β-1-[2-Oxo-4-(2-methylhydrazino)-1,2-dihydropyrimidin-1-yl]-2-deoxy-2,2-difluororibose]: the IC50 in assay [1] stood at 4.1 µg/mL (≈ 14 µM).
Turning to `CCOC(=O)C(C)Nc1ccn([C@@H]2O[C@H](CO)[C@@H](O)C2(F)F)c(=O)n1` (stereo partly drawn) [Example 11, β-1-(2-oxo-4-N-alanineethyl ester-1,2-dihydropyrimidin-1-yl)-2-deoxy-2,2-difluororibose], the “IC50 (concentration giving 50 percent growth inhibition)” value in assay [1] was determined as 6.3 µg/mL (≈ 17.3 µM).

These data come from patent US5430026A, “2'-deoxy-2',2'-difluoro (4-substituted pyrimidine) nucleosides, bicyclic derivatives,pharmaceutical compositions, and synthetic precursors” (Eli Lilly and Company, priority 1993, dated 1995).
